Results taken from PubChem BioAssay (NCI).
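Protocol summary: plate cells (96-well), add compound at 5 concentrations, incubate 48 h, interpolate endpoints linearly. Abbreviation: GI50, concentration required for 50% inhibition of growth. The concentration for full growth arrest is given as TGI.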

What was measured:
Test in all cases: NCI anticancer screen, dose series, 48 h; in the data active = GI50 below about 0.43 µM; inactive = the rest
[1] = test system: SK-OV-3 ovarian
[2] = test system: UO-31 renal
[3] = test system: SR leukemia
[4] = test system: MDA-MB-435
[5] = test system: T-47D breast
[6] = test system: U251 CNS
[7] = test system: A549 NSCLC
[8] = test system: SF-295 CNS
[9] = test system: TK-10 renal
[10] = test system: CCRF-CEM leukemia
[11] = test system: UACC-62 melanoma
[12] = test system: SN12C renal
[13] = test system: LOX IMVI melanoma
[14] = test system: SK-MEL-5 melanoma
[15] = test system: SNB-75 CNS
[16] = test system: NCI/ADR-RES ovarian
[17] = test system: MALME-3M melanoma
[18] = test system: OVCAR-5 ovarian
[19] = test system: MCF7 breast
[20] = test system: SW-620 colon
[21] = test system: MOLT-4 leukemia
[22] = test system: SF-268 CNS
[23] = test system: SK-MEL-28 melanoma
[24] = test system: HCT-116 colon
[25] = test system: HOP-62 NSCLC
[26] = test system: SK-MEL-2 melanoma
[27] = test system: HT29 colon
[28] = test system: RXF 393 renal
[29] = test system: K-562 leukemia
[30] = test system: HOP-92 NSCLC
[31] = test system: M14 melanoma
[32] = test system: NCI-H460 lung

CN(Cc1cnc2nc(N)nc(N)c2n1)c1ccc(C(=O)NC(CCC(=O)O)C(=O)O)c2ccccc12 (centres undefined)
> 1 mM: TGI [1] | TGI [2] | TGI [3] | TGI [4] | TGI [5] | TGI [6] | TGI [7] | TGI [8] | TGI [9] | TGI [10] | TGI [11] | TGI [12] | TGI [13] | TGI [14] | TGI [16] | TGI [17] | TGI [18] | TGI [19] | TGI [20] | TGI [21] | TGI [22] | TGI [24] | TGI [26] | TGI [27] | TGI [28] | TGI [29] | TGI [30] | TGI [31] | TGI [32]
inactive: GI50 [1] 0.0553 mM | GI50 [6] 0.293 mM | GI50 [9] > 1 mM | GI50 [15] > 0.0856 mM | GI50 [17] > 1 mM | GI50 [26] > 1 mM | GI50 [28] > 1 mM | GI50 [30] > 1 mM
active: GI50 [23] 61.6 nM | GI50 [25] < 24.4 nM
